Measurements taken from ChEMBL document CHEMBL3112544, “Discovery of ZAP70 inhibitors by high-throughput docking into a conformation of its kinase domain generated by molecular dynamics” (Bioorg Med Chem Lett, 2013).
pIC50: −log10 of the molar value. Activity calls are given as the source filed them. The rule behind the calls is not given here.

Experiments:
[1] = target: T1, Tyrosine-protein kinase JAK2 (Homo sapiens, UniProt O60674); test: Inhibition of JAK2 (unknown origin) by radioactive ATP method
T1 sequence (O60674 whole entry): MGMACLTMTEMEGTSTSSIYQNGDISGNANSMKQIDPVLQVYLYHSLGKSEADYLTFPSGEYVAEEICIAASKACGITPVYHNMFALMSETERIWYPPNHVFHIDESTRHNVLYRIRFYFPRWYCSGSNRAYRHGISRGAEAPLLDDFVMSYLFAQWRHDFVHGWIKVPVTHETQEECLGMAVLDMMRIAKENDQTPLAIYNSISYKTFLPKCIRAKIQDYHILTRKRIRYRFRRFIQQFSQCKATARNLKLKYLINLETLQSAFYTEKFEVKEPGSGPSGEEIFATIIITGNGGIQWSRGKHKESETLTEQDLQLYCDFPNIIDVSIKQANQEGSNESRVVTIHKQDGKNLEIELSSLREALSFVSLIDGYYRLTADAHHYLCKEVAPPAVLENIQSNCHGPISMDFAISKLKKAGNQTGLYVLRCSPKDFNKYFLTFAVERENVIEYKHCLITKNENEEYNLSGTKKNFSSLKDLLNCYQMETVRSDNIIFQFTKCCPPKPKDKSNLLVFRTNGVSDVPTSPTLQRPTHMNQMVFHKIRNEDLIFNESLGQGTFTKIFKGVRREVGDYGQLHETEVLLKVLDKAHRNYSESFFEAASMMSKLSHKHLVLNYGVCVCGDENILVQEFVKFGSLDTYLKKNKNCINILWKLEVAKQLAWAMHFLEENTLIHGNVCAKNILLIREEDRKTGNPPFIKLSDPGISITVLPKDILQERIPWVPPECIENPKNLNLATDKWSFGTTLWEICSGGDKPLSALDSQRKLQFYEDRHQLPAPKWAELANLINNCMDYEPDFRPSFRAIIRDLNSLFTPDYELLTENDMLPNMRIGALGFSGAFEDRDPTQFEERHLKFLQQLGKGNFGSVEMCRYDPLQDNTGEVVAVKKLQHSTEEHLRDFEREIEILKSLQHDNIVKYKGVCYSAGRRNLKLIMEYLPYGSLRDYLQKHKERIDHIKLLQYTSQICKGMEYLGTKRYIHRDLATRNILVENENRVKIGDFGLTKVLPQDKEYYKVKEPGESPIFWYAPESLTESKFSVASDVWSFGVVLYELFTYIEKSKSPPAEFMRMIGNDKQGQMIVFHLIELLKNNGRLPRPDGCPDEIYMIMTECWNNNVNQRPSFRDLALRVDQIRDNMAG

[2] = target: T2, Tyrosine-protein kinase SYK (Homo sapiens, UniProt P43405); test: Inhibition of SYK (unknown origin) at 20 uM by radioactive ATP method
[3] = target: T3, Tyrosine-protein kinase ZAP-70 (Homo sapiens, UniProt P43403); test: Inhibition of full-length ZAP70 (unknown origin) by radioactive ATP method
T3 sequence (P43403 whole entry): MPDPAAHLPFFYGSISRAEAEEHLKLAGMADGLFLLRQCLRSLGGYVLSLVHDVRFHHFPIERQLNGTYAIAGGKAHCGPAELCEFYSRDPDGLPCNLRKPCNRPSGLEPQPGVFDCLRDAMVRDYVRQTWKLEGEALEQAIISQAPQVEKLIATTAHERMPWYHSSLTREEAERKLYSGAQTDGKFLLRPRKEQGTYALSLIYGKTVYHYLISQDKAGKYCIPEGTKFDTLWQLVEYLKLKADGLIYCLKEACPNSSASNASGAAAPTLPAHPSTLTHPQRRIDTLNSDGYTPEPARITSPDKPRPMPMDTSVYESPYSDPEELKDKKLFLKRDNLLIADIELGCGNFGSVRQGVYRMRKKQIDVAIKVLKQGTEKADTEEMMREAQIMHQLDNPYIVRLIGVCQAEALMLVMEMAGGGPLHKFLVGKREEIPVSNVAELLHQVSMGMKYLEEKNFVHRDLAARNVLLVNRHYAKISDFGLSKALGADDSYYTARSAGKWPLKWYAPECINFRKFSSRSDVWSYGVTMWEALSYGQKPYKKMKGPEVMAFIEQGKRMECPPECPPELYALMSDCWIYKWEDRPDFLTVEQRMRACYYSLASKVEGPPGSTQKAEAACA

[4] = target: T4, Tyrosine-protein kinase ZAP-70 (Homo sapiens) (UniProt P43403); test: Inhibition of full-length ZAP70 (unknown origin) at 20 uM by radioactive ATP method
T4 sequence (whole entry): T3 sequence (P43403 whole entry)

[5] = target: T2, Tyrosine-protein kinase SYK; test: Inhibition of SYK (unknown origin) by radioactive ATP method
[6] = target: T1, Tyrosine-protein kinase JAK2; test: Inhibition of JAK2 (unknown origin) at 20 uM by radioactive ATP method

Row | SMILES | inhibition [4] | also measured
1 | O=C1NN(c2ccccc2)C(=O)/C1=C\c1cc(Cl)ccc1OCc1ccccc1 |  | pIC50 [1]: 4.82; inhibition [2]: 16%; pIC50 [3]: 4.66
2 | Oc1ccc(-c2ccnc3cc(Cl)ccc23)cc1CN1CCCCC1 | inactive | 
3 | CCn1c(N)c(-c2csc(-c3ccc(O)cc3)n2)c(=O)[nH]c1=O | inactive | 
4 | N[C@@H](CO)C(=O)N1CCc2[nH]nc(-c3ccc(F)c(F)c3)c2C1 | inactive | 
5 | O=C1Nc2ccc3c(oc4ccccc43)c2C1=NNc1ccncc1 |  | pIC50 [1]: 4.96; pIC50 [5]: 4.59; pIC50 [3]: 5.10
6 | Clc1cccc(C2C=C(c3cccnc3)Nc3nc4ccccc4n32)c1 (stereo unspecified) | inactive | 
7 | N#C/C(=C1/C(=O)Nc2ccccc21)c1nc2ccccc2[nH]1 | inactive | 
8 | O=C1Nc2ccccc2/C1=C(\c1ccccc1)c1nc2ccccc2[nH]1 |  | pIC50 [5]: 4.40; pIC50 [3]: 4.59
9 | CCOc1ccc(Nc2nc(N)c(C(=O)c3cccc(OC)c3)s2)cc1 |  | pIC50 [5]: < 3.70; pIC50 [3]: 4.54
10 | Cc1ccc2[nH]c3c(c2c1)CCC1C3=NNC1c1ccccc1 (stereo unspecified) | inactive | 
11 | O=C1NC(=S)N/C1=C1\C(=O)N(Cc2ccccc2Cl)c2ccccc21 |  | pIC50 [5]: 3.77; pIC50 [3]: 4.68
12 | CC(C)c1ccc(-c2c(C#N)c(N)nc3sc(C(N)=O)c(N)c23)cc1 | inactive | 
13 | O=c1[nH]c2ccc(S(=O)(=O)NC3CC3)cc2c2ccccc12 | inactive | 
14 | O=C1NN(c2ccccc2)C(=O)/C1=C/c1ccc(-c2ccccc2Cl)o1 |  | pIC50 [5]: 4.24; pIC50 [3]: 4.85
15 | O=C1NC(=O)N(c2ccc(F)cc2)C(=O)/C1=C\c1cccn1-c1ccc(O)cc1 | inactive | 
16 | O=C(c1ccc2[nH]c(=O)[nH]c2c1)N1CCc2[nH]nc(-c3ccccc3)c2C1 | inactive | 
17 | O=C(c1ccc2[nH]cnc2c1)N1CCc2[nH]nc(-c3cccc(Cl)c3)c2C1 | inactive | 
18 | Cc1cc(NC(=O)c2sc(Nc3ccccc3)nc2N)on1 | inactive | 
19 | Nc1ccc(C(=O)N2CCc3[nH]nc(-c4cc(F)cc(F)c4)c3C2)cn1 | inactive | 
20 | COc1ccc(Nc2nc(N3CCOCC3)c3nc[nH]c3n2)cc1OC |  | pIC50 [1]: 6.96; pIC50 [5]: 4.92; pIC50 [3]: 4.21
21 | COc1ccc(NC2=NC3NN=C(N)C3C3=C2CN(C)CC3)cc1 (stereo unspecified) | inactive | 
22 | O=C1Nc2ccc(S(=O)(=O)Cc3ccc4ccccc4c3)c3cccc1c23 | inactive | 
23 | CC(=O)Nc1ccc(OS(=O)(=O)c2ccc3[nH]c(=O)[nH]c3c2)cc1 | inactive | 
24 | Cc1ccc(-c2n[nH]c3c2CN(c2ncc(F)c(NCCO)n2)CC3)cc1 | inactive | 

Now from value to molecule, other results behind:

Row | inhibition [4] | SMILES | also measured
25 | inactive | O=C1NC(=O)N(c2cccc(F)c2)C(=O)/C1=C\c1cccn1-c1ccccc1 | 
26 | 43% | Cc1cc(/C=C2/C(=O)NN(c3ccccc3)C2=O)c(C)n1-c1cccc(O)c1 | inhibition [2]: 16%
27 | inactive | COc1cccc(-c2ccnc3[nH]n(-c4ccccc4)c(=O)c23)c1 | 
28 | 46% | O=C1NN(c2ccc(F)cc2)C(=O)/C1=C\c1cccc(OCc2ccccc2F)c1 | inhibition [6]: 22%; inhibition [2]: 16%
29 | inactive | O=C1N/C(=C/c2ccc(O)cc2)C(=O)N1c1ccccc1 | 
30 | inactive | O=C1NC(=O)N(c2ccccc2F)C(=O)/C1=C\c1cccn1-c1ccccc1 | 
31 | inactive | COc1ccc(/C=C2/NC(=O)N(c3cccc(Cl)c3)C2=O)cc1O | 
32 | 49% | O=C1NN(c2ccccc2)C(=O)/C1=C/c1ccc(-c2ccccc2)o1 | inhibition [2]: 17%
